Among the data in ChEMBL document CHEMBL5726588, “Chemically modified quinoline and quinolone derivatives useful as CB-1 inverse agonists” (2017) are EC50 values, retold here.

Assay [1] addresses Cannabinoid receptor 1 (Homo sapiens, UniProt P21554). Kind of assay: (§1) cAMP Assay : Cells plated the day prior to the assay in clear bottom plates were viewed on an inverse microscope to ensure confluency in the range of 60-75%. The following mixtures and buffer solutions were prepared: (a) Buffer 1: HBSS (Mediatech Cat#21-023-CV) with 5 mM HEPES ([…], Gibco BRL Cat#15630-056) and 0.1% BSA (7.5% stock, Invitrogen Cat#15260-037); (b) Buffer 2: 0.5 mM IBMX (200 mM stock in DMSO, Sigma 15879) in Buffer 1; (c) 1 μM cAMP Standard (50 μM stock, Perkin Elmer Cat# AD0262) diluted in Buffer 2 and serially diluted in Buffer 2, 12 doses @ ½ dilutions resulting in a dose range of 1 μM to 0.5 nM; (d) d2 labelled cAMP (CisBio HTRF Detection Kit Cat #62AM4PEB reconstituted with 6 mL d-H2O) diluted 1/20 with lysis buffer (CisBio HTRF Detection Kit Cat #62AM4PEB); (e) anti-cAMP (CisBio HTRF Detection Kit Cat # 62AM4PEB reconstituted with 5 mL d-H2O) diluted 1/20 with lysis buffer (CisBio HTRF Detection Kit Cat #62AM4PEB); and (f) Forskolin (Sigma Cat# F6886, 10 mM in DMSO) diluted first in DMSO to 1 mM and then to 1.5 μM in Buffer 2. For orientation: TR-FRET usually uses a lanthanide donor and a delayed reading to cut background.

Assay [2] concerns the target Cannabinoid receptor 2 (Homo sapiens, UniProt P34972). Described as §1.

Cannabinoid receptor 2, sequence (P34972 whole entry): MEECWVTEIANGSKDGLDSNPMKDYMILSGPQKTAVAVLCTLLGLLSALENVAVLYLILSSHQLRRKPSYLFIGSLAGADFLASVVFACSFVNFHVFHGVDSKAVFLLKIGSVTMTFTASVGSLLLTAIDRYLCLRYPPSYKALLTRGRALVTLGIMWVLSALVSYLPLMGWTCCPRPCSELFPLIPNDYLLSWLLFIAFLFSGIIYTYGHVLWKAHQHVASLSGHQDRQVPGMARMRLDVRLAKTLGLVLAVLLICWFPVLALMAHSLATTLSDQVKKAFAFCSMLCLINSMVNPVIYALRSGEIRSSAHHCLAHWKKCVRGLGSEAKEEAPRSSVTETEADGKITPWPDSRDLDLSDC
Cannabinoid receptor 1, sequence (P21554 whole entry): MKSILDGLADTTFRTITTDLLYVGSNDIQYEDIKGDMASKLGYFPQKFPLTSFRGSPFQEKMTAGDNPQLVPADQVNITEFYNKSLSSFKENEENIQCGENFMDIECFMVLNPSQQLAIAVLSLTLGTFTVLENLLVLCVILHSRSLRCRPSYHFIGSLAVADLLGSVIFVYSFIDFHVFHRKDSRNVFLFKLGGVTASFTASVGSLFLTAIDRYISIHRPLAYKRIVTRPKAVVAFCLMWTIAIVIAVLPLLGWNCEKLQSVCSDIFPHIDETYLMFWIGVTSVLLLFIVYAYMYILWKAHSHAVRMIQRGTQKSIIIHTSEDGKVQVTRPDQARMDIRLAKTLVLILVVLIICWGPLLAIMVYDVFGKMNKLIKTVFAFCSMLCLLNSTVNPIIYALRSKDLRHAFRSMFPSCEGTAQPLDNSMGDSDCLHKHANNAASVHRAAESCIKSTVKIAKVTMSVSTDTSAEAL

The EC50 is the midpoint of the concentration-response curve. `COCCOCCOCCOCCOCCOCCOCCOc1cc(NC2CCN(S(=O)(=O)C(F)(F)F)CC2)c2cc(C(c3ccc(Cl)cc3)c3ccc(Cl)cc3)ccc2n1`: the EC50 in assay [1] worked out at 0.48 µM; in assay [2], 5.57 µM.
The corresponding values for `COCCOCCOCCOCCOc1cc(NC2CCN(S(=O)(=O)C(F)(F)F)CC2)c2cc(C(c3ccc(Cl)cc3)c3ccc(Cl)cc3)ccc2n1` are 0.056 µM and 7.4 µM.
Consider `NNC(=O)CCOCCOCCOCCOCCOCCOCCOCCOCCOCCNC(=O)CCCCCOc1cc(NC2CCN(S(=O)(=O)C(F)(F)F)CC2)c2cc(C(c3ccc(Cl)cc3)c3ccc(Cl)cc3)ccc2n1`, for which the results for the EC50 in assay [1] and in assay [2] were 0.033 µM and 1.26 µM, respectively.
With `NCCOCCOCCOCCOCCOCCOCCOCCOCCOCCOCCOCCOc1cc(NC2CCN(S(=O)(=O)C(F)(F)F)CC2)c2cc(C(c3ccc(Cl)cc3)c3ccc(Cl)cc3)ccc2n1`, the results for the EC50 in assay [1] and in assay [2] were 0.036 µM and 4.3 µM, respectively.
As for `O=S(=O)(N1CCC(Nc2ccnc3c(OCCOCCOCCOCCOCCOCCOCCOCCOCCOCCO)cc(C(c4ccc(Cl)cc4)c4ccc(Cl)cc4)cc23)CC1)C(F)(F)F`, the EC50 amounted to 0.068 µM in assay [1] and 1.9 µM in assay [2].
As for `CC(C)(C)OC(=O)NCCOCCOCCOCCOCCOCCOCCOCCOCCOCCOCCOCCOc1cc(NC2CCN(S(=O)(=O)C(F)(F)F)CC2)c2cc(C(c3ccc(Cl)cc3)c3ccc(Cl)cc3)ccc2n1`, the EC50 was 1.8 µM in assay [1] and above 10 µM in assay [2].
Take `COCCOCCOCCOCCn1c(=O)c(N2CCN(c3ccccc3)CC2)cc2cc(C(c3ccc(Cl)cc3)c3ccc(Cl)cc3)ccc21`: the EC50 amounted to 0.35 µM in assay [1] and 5.51 µM in assay [2].
The corresponding values for `COCCOCCOCCOCCOCCOCCOCCn1c(=O)cc(NC2CCN(S(=O)(=O)C(F)(F)F)CC2)c2cc(C(c3ccc(Cl)cc3)c3ccc(Cl)cc3)ccc21` are 4.91 µM and above 10 µM.
On to `CC(C)(C)OC(=O)CCOCCOCCOCCOCCOCCOCCOCCOCCOCCOCCOCCOCCOc1cc(C(c2ccc(Cl)cc2)c2ccc(Cl)cc2)cc2c(NC3CCN(S(=O)(=O)C(F)(F)F)CC3)ccnc12`, for which the concentration giving a half-maximal response (EC50) in assay [1] was 0.46 µM; in assay [2] it was 2.25 µM.
